From patent US8507469B2, “Azetidin compounds suitable for treating disorders that respond to modulation of the serotonin 5-HT6 receptor” (Abbott GmbH & Co. KG, priority 2007, dated 2013) come the findings set out here.

One experiment deals with histamine H1 receptor (Homo sapiens, UniProt P35367). Nature of the experiment: H1 receptor binding assay (displacement of [3H]-pyrilamine). To be noted: CHO-K1 membranes, 1 nM [3H]-pyrilamine. On the procedure: (§1) Cells from stable clonal cell lines expressing the corresponding receptor (5-HT6, 1-adrenergic, dopamine D2 or histamine H1 receptors) were washed with PBS (w/o Ca^++, Mg^++) and harvested in PBS with 0.02% EDTA. The cells were collected by centrifugation at 500 g for 10 min. at 4° C., washed with PBS and centrifuged (500 g, 10 min. 4° C.). The pellets were stored at −80° C. until use. For membrane preparation, the thawed cell pellet was resuspended in ice-cold sucrose buffer (0.25 M sucrose, 10 mM Hepes (pH 7.4), 1 mM Phenylmethylsulfonyl fluoride (PMSF) in DMSO, […] Pepstatin-A, 3 mM EDTA, 0.025% Bacitracin) and homogenized with a Branson Sonifier W-250 (Settings: Timer 4; Output Control 3; Duty Cycle constant; 2 to 3 cycles). Cell disruption was checked with the aid of a microscope. Remaining unbroken cells were pelleted at 1.000 g for 10 min. at 4° C. The sucrose buffer supernatant was then centrifuged at 60.000 g for 1 h at 4° C. (Beckman Ultrazentrifuge XL 80). The pellet was resuspended in 30 ml ice-cold Tris buffer (20 mM TRIS (pH 7.4), […] Pepstatin A, 0.1 mM PMSF, 3 mM EDTA) by pipetting through a 10 ml serological pipet and centrifuged for 1 h at 4° C. at 60.000 g. A final resuspension was performed in a small volume of ice-cold Tris buffer (see above) by pressing through a serological pipet followed by ultrasonic treatment with a Branson Sonifier W-250 (Settings: Timer 1; Output Control 3; Duty Cycle constant; 1 cycle). Protein concentration was determined (BCA-Kit; Pierce) and aliquots stored at −80° C. or in liquid nitrogen for long-term storage.
(§2) All receptor binding experiments were carried out in the corresponding assay buffer in a total volume of 200 μl in the presence of various concentrations of test compound (10^−5 M to 10^−9 M, tenfold serial dilution, duplicate determinations). The assays were terminated by filtration on polyethylenimine (PEI 0.1% or 0.3%) presoaked Packard Unifilter Plates (GF/C or GF/B) with a Tomtec MachIII U 96well-plate harvester. After the plates had been dried for 2 h at 55° C. in a drying chamber scintillation cocktail (BetaPlate Scint; PerkinElmer) was added. Radioactivity was measured in a Microbeta Trilux two hours after the addition of the scintillation mixture. Data derived from liquid scintillation counting were analysed by iterative non-linear regression analysis with the use of the Statistical Analysis System (SAS): a program similar to “LIGAND” as described by Munson and Rodbard (Analytical Biochemistry 107, 220-239 (1980).
CHO-K1 cells stably expressing the histamine H1 receptor (Euroscreen-ES-390-C, NCBI Reference Sequence NM_000861) were cultured in RPMI1640 medium supplemented with 25 mM HEPES, 10% fetal calf serum and 1-2 mM glutamine. The membrane preparation was performed as described in section 1. […] On the day of the assay, the membranes were thawed, diluted in assay buffer (50 mM Na2HPO4, 50 mM KH2PO4, pH 7.4) to a concentration of 6 μg protein/assay and homogenized by gentle vortexing. […] The binding reaction was carried out for 50 minutes at room temperature and terminated by filtration on Packard Unifilter GF/C (0.3% PEI) plates, followed by 2 wash cycles with ice-cold assay buffer.
(§3) Data derived from liquid scintillation counting were analyzed by iterative non-linear regression analysis with the use of the Statistical Analysis System (SAS): a program similar to “LIGAND” as described by Munson and Rodbard (Anal. Biochem. 1980, 107, 220-239). Fitting was performed according to formulae described by Feldman (Anal. Biochem. 1972, 48, 317-338). IC50, nH and Ki values were expressed as geometrical mean.

The target in a further experiment is T1, h-5-HT6 receptor (Homo sapiens, UniProt P50406).
T1 construct: expressed in transfected cells
The experiment can be described thus: 5-HT6 receptor binding assay (displacement of [3H]-LSD). To be noted: HEK293 membranes, 1 nM [3H]-LSD. On the procedure: as §1, §2
HEK293 cells stably expressing the h-5-HT6 receptor (NCBI Reference Sequence XM 001435) were cultured in RPMI1640 medium supplemented with 25 mM HEPES, 10% fetal calf serum and 1-2 mM glutamine. The membrane preparation was performed as described in section 1. […] Non-specific binding was defined with 1 μM methiothepin. The binding reaction was carried out for 3.5 h at room temperature. During the incubation, the plates were shaken on a plate shaker at 100 rpm and terminated by filtration on Packard Unifilter GF/C (0.1% PEI) plates, followed by 2 wash cycles with ice-cold 50 mM Tris-HCl, 5 mM CaCl2.
as §3
A general note: In a radioligand displacement assay an active substance lowers the binding of a labelled ligand.

The next experiment has as its target T2, α1-adrenergic receptor (Homo sapiens, UniProt P35348).
T2 construct: expressed in transfected cells
Nature of the experiment: α1-adrenergic receptor binding assay (displacement of [3H]-prazosine). The conditions noted are these: CHO-K1 membranes, 0.1 nM [3H]-prazosine. As for the experimental part:
as §1, §2
CHO-K1 cells stably expressing the 1-adrenergic receptor (NCBI Reference Sequence NM_033303) were cultured in RPMI1640 medium supplemented with 25 mM HEPES, 10% fetal calf serum and 1-2 mM glutamine. The membrane preparation was performed as described in section 1. […] On the day of the assay, the membranes were thawed, diluted in assay buffer (50 mM Tris-HCl, pH 7.4) to a concentration of 4 μg protein/assay and homogenized by gentle vortexing. […] Non-specific binding was defined with 1 μM phentolamine. The binding reaction was carried out for 1 h at room temperature and terminated by filtration on Packard Unifilter GF/C (0.1% PEI) plates, followed by 3 wash cycles with ice-cold assay buffer.
as §3

The target in the next experiment is T3, dopamine D2 receptor (Homo sapiens, UniProt P14416).
T3 construct: expressed in transfected cells
The experiment can be described thus: Dopamine D2 receptor binding assay (displacement of [125I]-iodospiperone). To be noted: for Ki: HEK293 membranes, 0.01 nM [125I]-iodospiperone. On the procedure:
as §1, §2
HEK293 cells stably expressing the dopamine D2 receptor (NCBI Reference Sequence NM_000795) were cultured in RPMI1640 medium supplemented with 25 mM HEPES, 10% fetal calf serum and 1-2 mM glutamine. The membrane preparation was performed as described in section 1. […] On the day of the assay, the membranes were thawed, diluted in assay buffer (50 mM Tris-HCl, 120 mM NaCl, 5 mM MgCl2, 5 mM KCl, 1.5 mM CaCl2, pH 7.4) to a concentration of 15 μg protein/assay and homogenized by gentle vortexing. For inhibition studies, 0.01 nM [^125I]-iodospiperone (PerkinElmer Life Sciences, NEX284) was incubated in the presence of various concentrations of test compound in assay buffer. Non-specific binding was defined with 1 μM haloperidol. The binding reaction was carried out for 1 h at room temperature and terminated by filtration on Packard Unifilter GF/B (0.1% PEI) plates, followed by 6 wash cycles with an ice-cold 7% polyethylenglycol solution.
as §3

Structures can show the parent of a compound that is named as a salt. Some results are limits rather than exact numbers.

histamine H1 receptor, sequence (P35367 whole entry): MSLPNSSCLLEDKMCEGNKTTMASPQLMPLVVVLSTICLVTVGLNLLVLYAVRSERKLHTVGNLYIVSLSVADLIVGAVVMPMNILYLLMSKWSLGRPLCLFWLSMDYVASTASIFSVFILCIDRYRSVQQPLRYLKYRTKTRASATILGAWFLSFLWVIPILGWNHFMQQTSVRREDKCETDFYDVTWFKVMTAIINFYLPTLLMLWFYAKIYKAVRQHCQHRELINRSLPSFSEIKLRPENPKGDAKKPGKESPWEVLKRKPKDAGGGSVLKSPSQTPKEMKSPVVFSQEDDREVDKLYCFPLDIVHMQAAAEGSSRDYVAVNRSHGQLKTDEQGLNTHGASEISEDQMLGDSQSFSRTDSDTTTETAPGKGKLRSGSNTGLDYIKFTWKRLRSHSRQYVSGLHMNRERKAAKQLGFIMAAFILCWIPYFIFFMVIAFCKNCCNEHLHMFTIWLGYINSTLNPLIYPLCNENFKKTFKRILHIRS
T2 sequence (P35348 1-475 isoform P35348-2): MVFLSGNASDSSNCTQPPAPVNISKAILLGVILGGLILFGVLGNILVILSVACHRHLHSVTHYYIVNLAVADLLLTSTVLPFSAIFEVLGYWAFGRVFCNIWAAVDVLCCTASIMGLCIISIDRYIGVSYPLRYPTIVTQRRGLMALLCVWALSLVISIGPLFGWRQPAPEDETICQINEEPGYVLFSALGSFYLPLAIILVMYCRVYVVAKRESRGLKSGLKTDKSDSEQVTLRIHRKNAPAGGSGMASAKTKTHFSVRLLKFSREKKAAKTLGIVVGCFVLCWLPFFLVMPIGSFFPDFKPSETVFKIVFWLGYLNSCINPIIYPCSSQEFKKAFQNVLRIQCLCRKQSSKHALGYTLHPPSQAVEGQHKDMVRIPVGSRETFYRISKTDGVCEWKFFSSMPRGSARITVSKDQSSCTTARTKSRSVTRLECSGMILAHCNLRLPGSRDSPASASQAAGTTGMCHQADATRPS
T3 sequence (P14416 whole entry): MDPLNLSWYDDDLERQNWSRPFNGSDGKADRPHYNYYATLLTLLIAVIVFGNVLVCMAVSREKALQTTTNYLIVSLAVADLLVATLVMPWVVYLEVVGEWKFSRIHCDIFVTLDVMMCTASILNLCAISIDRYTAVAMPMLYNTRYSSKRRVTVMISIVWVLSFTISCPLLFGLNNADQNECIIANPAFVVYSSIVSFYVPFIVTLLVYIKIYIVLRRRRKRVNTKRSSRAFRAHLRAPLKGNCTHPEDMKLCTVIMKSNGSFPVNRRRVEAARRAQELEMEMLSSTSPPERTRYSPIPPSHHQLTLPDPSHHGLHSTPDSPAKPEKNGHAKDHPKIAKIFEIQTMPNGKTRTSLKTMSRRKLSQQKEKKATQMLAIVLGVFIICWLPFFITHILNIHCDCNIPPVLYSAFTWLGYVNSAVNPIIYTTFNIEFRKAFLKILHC
T1 sequence (P50406 whole entry): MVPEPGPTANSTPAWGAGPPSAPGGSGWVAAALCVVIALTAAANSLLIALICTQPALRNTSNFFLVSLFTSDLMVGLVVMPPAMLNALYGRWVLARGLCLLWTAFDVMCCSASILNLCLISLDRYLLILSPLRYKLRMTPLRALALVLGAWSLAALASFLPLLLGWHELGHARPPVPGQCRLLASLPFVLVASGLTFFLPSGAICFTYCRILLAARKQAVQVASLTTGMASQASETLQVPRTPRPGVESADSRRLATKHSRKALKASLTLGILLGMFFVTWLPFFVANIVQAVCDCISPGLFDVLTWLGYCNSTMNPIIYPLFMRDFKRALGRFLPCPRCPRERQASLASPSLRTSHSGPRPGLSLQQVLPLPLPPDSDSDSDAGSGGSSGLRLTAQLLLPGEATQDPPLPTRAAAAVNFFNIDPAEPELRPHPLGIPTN

As to `O=S(=O)(c1ccccc1)n1ccc2cc(C3CNC3)ccc21` [compound 2, 5-azetidin-3-yl-1-benzenesulfonyl-1H-indole, hydrochloride], the inhibition constant (Ki) is over 10 µM at histamine H1 receptor, under 0.005 µM at h-5-HT6 receptor, over 1 µM at α1-adrenergic receptor and over 10 µM on dopamine D2 receptor.

For `O=S(=O)(c1ccc(-c2cnco2)cc1)n1ccc2cc(C3CNC3)ccc21` [compound 3, 5-azetidin-3-yl-1-(4-oxazol-5-yl-benzenesulfonyl)-1H-indole, hydrochloride], the Ki on h-5-HT6 receptor was under 0.25 µM; on dopamine D2 receptor it was over 1 µM.

On to `CCCN1CC(c2ccc3c(ccn3S(=O)(=O)c3ccc(OC(F)F)cc3)c2)C1` [compound 4, 1-(4-Difluoromethoxy-benzenesulfonyl)-5-(1-propyl-azetidin-3-yl)-1H-indole, hydrochloride], for which the inhibition constant (Ki) at h-5-HT6 receptor is under 0.05 µM; at α1-adrenergic receptor, over 0.25 µM; on dopamine D2 receptor, over 1 µM.

With `CCCN1CC(c2ccc3c(ccn3S(=O)(=O)c3ccccc3)c2)C1` [compound 5, 1-benzenesulfonyl-5-(1-propylazetidin-3-yl)-1H-indole, hydrochloride], the Ki on histamine H1 receptor was over 1 µM; at h-5-HT6 receptor it was under 0.005 µM; on α1-adrenergic receptor it was over 0.25 µM; on dopamine D2 receptor, over 1 µM.

Regarding `CCCN1CC(c2ccc3c(ccn3S(=O)(=O)c3ccc(-c4cnco4)cc3)c2)C1` [compound 6, 1-(4-oxazol-5-yl-benzenesulfonyl)-5-(1-propylazetidin-3-yl)-1H-indole, hydrochloride], the results for the Ki on h-5-HT6 receptor and on dopamine D2 receptor were under 0.25 µM and over 1 µM, respectively.

On to `O=S(=O)(c1ccccc1)N1CCc2cc(C3CNC3)ccc21` [compound 7, 5-azetidin-3-yl-1-benzenesulfonyl-2,3-dihydro-1H-indole, hydrochloride], for which the inhibition constant Ki is over 1 µM at histamine H1 receptor, under 0.005 µM at h-5-HT6 receptor, over 1 µM at α1-adrenergic receptor and over 10 µM at dopamine D2 receptor.

Consider `O=S(=O)(c1ccc(-c2cnco2)cc1)N1CCc2cc(C3CNC3)ccc21` [compound 8, 5-azetidin-3-yl-1-(4-oxazol-5-yl-benzenesulfonyl)-2,3-dihydro-1H-indole], for which the values for the Ki at h-5-HT6 receptor and at dopamine D2 receptor were under 0.25 µM and over 10 µM, respectively.

With `O=S(=O)(c1cccc(C(F)(F)F)c1)n1ccc2cc(C3CNC3)ccc21` [compound 19, 5-azetidin-3-yl-1-(3-trifluoromethyl-benzenesulfonyl)-1H-indole, hydrochloride], the inhibitory constant (Ki) on histamine H1 receptor was over 10 µM; on h-5-HT6 receptor it was under 0.005 µM; on α1-adrenergic receptor, over 1 µM; at dopamine D2 receptor, over 10 µM.

Turning to `O=S(=O)(c1cccc(OC(F)(F)F)c1)n1ccc2cc(C3CNC3)ccc21` [compound 20, 5-Azetidin-3-yl-1-(3-trifluoromethoxybenzenesulfonyl)-1H-indole, hydrochloride], the Ki is over 10 µM on histamine H1 receptor, under 0.005 µM at h-5-HT6 receptor, over 1 µM at α1-adrenergic receptor and over 1 µM on dopamine D2 receptor.

With `O=S(=O)(c1cccc(OC(F)F)c1)n1ccc2cc(C3CNC3)ccc21` [compound 21, 5-Azetidin-3-yl-1-(3-difluoromethoxybenzenesulfonyl)-1H-indole, hydrochloride], the Ki at histamine H1 receptor was over 10 µM; on h-5-HT6 receptor, under 0.005 µM; on α1-adrenergic receptor, over 1 µM; on dopamine D2 receptor it was over 1 µM.

Regarding `O=S(=O)(c1ccccc1OC(F)(F)F)n1ccc2cc(C3CNC3)ccc21` [compound 23, 5-Azetidin-3-yl-1-(2-trifluoromethoxybenzenesulfonyl)-1H-indole], the inhibition constant Ki was over 1 µM on histamine H1 receptor, under 0.005 µM at h-5-HT6 receptor, over 1 µM on α1-adrenergic receptor and over 10 µM at dopamine D2 receptor.

`O=S(=O)(c1cccnc1)n1cc(C2CNC2)c2ccccc21` [compound 24, Azetidin-3-yl-1-(pyridine-3-sulfonyl)-1H-indole, hydrochloride]: the figures for the Ki on h-5-HT6 receptor and at dopamine D2 receptor were under 0.01 µM and over 10 µM, respectively.

On to `CCCN1CC(c2ccc3c(ccn3S(=O)(=O)c3cccc(C(F)(F)F)c3)c2)C1` [compound 25, 5-(1-propyl-azetidin-3-yl)-1-(3-trifluoromethylbenzenesulfonyl)-1H-indole, hydrochloride], for which the Ki on histamine H1 receptor was over 1 µM; at h-5-HT6 receptor it was under 0.005 µM; on α1-adrenergic receptor, over 0.25 µM; at dopamine D2 receptor, over 1 µM.

For the compound `CCCN1CC(c2ccc3c(ccn3S(=O)(=O)c3cccc(OC(F)(F)F)c3)c2)C1` [compound 26, 5-(1-Propylazetidin-3-yl)-1-(3-trifluoromethoxybenzenesulfonyl)-1H-indole, hydrochloride], the inhibitory constant (Ki) on histamine H1 receptor was over 1 µM; at h-5-HT6 receptor, under 0.005 µM; at α1-adrenergic receptor, over 0.25 µM; at dopamine D2 receptor, over 1 µM.

As to `CCCN1CC(c2ccc3c(ccn3S(=O)(=O)c3cccc(OC(F)F)c3)c2)C1` [compound 27, 5-(1-Propylazetidin-3-yl)-1-(3-difluoromethoxybenzenesulfonyl)-1H-indole, hydrochloride], the inhibition constant Ki on histamine H1 receptor was over 1 µM; on h-5-HT6 receptor, under 0.005 µM; on α1-adrenergic receptor, over 0.25 µM; on dopamine D2 receptor, over 1 µM.

As to `CCN1CC(c2ccc3c(ccn3S(=O)(=O)c3ccccc3)c2)C1` [compound 28, 5-(1-Ethylazetidin-3-yl)-1-benzenesulfonyl-1H-indole, hydrochloride], the Ki on h-5-HT6 receptor is under 0.01 µM; at dopamine D2 receptor, over 1 µM.

In the case of `CN1CC(c2ccc3c(ccn3S(=O)(=O)c3ccccc3)c2)C1` [compound 29, 5-(1-Methylazetidin-3-yl)-1-benzenesulfonyl-1H-indole, hydrochloride], the results for the inhibitory constant (Ki) on h-5-HT6 receptor and on dopamine D2 receptor were under 0.01 µM and over 1 µM, respectively.

Take “iodospiperone [[^125I]-iodospiperone, reference compound]”: the Kd at dopamine D2 receptor (saturation binding experiments, HEK293 D2 membranes, read-out: KD of radioligand) was 0.00022 µM.

As a reminder, the Ki is a dissociation constant, usually derived from enzyme kinetics or from competition with a known ligand. The Kd is the concentration at which binding is half-saturated.
